According to PMC10600890 (ACS Omega, 2023):

Columns and labels:
[1] = Intrinsic clearance in primary mouse hepatocytes; assay type: in vitro ADME; conditions: male, CD-1, mouse, cryopreserved primary hepatocytes
[2] = Intrinsic clearance in mouse liver microsomes; assay type: in vitro ADME
[3] = Intrinsic clearance in mouse liver S9 fraction; assay type: in vitro ADME; conditions: male, CD-1, mouse
[4] = In vivo mouse pharmacokinetics; conditions: male, CD-1, mouse, plasma
[5] = Mouse liver microsomal stability, single 30 min time point; assay type: in vitro ADME; conditions: primary mouse liver microsomes (MLM)
[6] = Metabolite ID study of 1i in mouse hepatocytes; assay type: in vitro ADME; conditions: 1i incubated 4 h in mouse primary hepatocytes; relative quantity by UV
[7] = test system: mice; assay: Dose ranging study of EA tolerability in mice; assay type: in vivo, mouse; conditions: i.p.

Row | Compound | CLint scaled at 1 μM [1] | CLint scaled [2] | CLint scaled [3] | AUC(0-t) ([4]; ip, 10 mg/kg) | Cmax ([4]; ip, 10 mg/kg) | bioavailability ([4]; ip, 10 mg/kg) | half-life ([4]; ip, 10 mg/kg) | AUC(0-t) ([4]; iv, 1 mg/kg) | Cmax ([4]; iv, 1 mg/kg) | Vd ([4]; iv, 1 mg/kg) | clearance ([4]; iv, 1 mg/kg) | half-life ([4]; iv, 1 mg/kg) | parent compound remaining after 30 min [5] | rel. (%) of peak (metabolite or parent) [6] | doses that resulted in clinical symptoms including death [7]
1 | CCC(=O)Nc1cc(Nc2cc(NC3CC3)n3ncc(C#N)c3n2)ccc1C [Compound 1a] |  |  |  |  |  |  |  |  |  |  |  |  | 40% |  | 
2 | CCC(=O)Nc1cc(Nc2cc(NC3CC3)n3ncc(C#N)c3n2)ccc1N1CCC[C@H](NC)C1 [Compound 1i, (S)-N-(5-((3-Cyano-7-(cyclopropylamino)pyrazolo[1,5-a]pyrimidin-5-yl)amino)-2-(3-(methylamino)piperidin-1-yl)phenyl)propionamide] |  | < 24 mL/min/kg |  | 7010 ng·h/mL | 4700 ng/mL | 100% |  |  | 1100 ng/mL |  | 36 mL/min/kg |  |  | 53% | 
3 | C=C(CC)C(=O)c1ccc(OCC(=O)O)c(Cl)c1Cl [EA, ethacrynic acid] |  |  |  |  |  |  |  |  |  |  |  |  |  |  | ≥ 100 mg/kg

The next lines start with results.

Row | CLint scaled at 1 μM [1] | CLint scaled [2] | CLint scaled [3] | AUC(0-t) ([4]; ip, 10 mg/kg) | Cmax ([4]; ip, 10 mg/kg) | bioavailability ([4]; ip, 10 mg/kg) | half-life ([4]; ip, 10 mg/kg) | AUC(0-t) ([4]; iv, 1 mg/kg) | Cmax ([4]; iv, 1 mg/kg) | Vd ([4]; iv, 1 mg/kg) | clearance ([4]; iv, 1 mg/kg) | half-life ([4]; iv, 1 mg/kg) | parent compound remaining after 30 min [5] | rel. (%) of peak (metabolite or parent) [6] | Compound | doses that resulted in clinical symptoms including death [7]
4 | 132 mL/min/kg | < 24 mL/min/kg | 1 mL/min/kg | 770 ng·h/mL | 670 ng/mL | 40% | 1.5 h | 200 ng·h/mL | 350 ng/mL | 5.07 L/kg | 84 mL/min/kg | 1.8 h |  |  | CN[C@H]1CCCN(c2ccc(Nc3cc(NC4CC4)n4ncc(C#N)c4n3)cc2NC(C)=O)C1 [Compound 2c, (S)-N-(5-((3-Cyano-7-(cyclopropylamino)pyrazolo[1,5-a]pyrimidin-5-yl)amino)-2-(3-(methylamino)piperidin-1-yl)phenyl)acetamide] | 
5 | 69 mL/min/kg | 27 mL/min/kg | 4 mL/min/kg | 1300 ng·h/mL | 1500 ng/mL | 53% | 1.4 h | 250 ng·h/mL | 810 ng/mL | 2.67 L/kg | 69 mL/min/kg | 1.2 h |  |  | CN[C@H]1CCN(c2ccc(Nc3cc(NC4CC4)n4ncc(C#N)c4n3)cc2NC(C)=O)C1 [Compound 2e, (S)-N-(5-((3-Cyano-7-(cyclopropylamino)pyrazolo[1,5-a]pyrimidin-5-yl)amino)-2-(3-(methylamino)pyrrolidin-1-yl)phenyl)acetamide] | 
